Reference: patent EP1789452B1, “RELAXIN-CHIMERIC POLYPEPTIDES AND THEIR PREPARATION AND USE” (Janssen Pharmaceutica NV, priority 2004, dated 2006)

Assays:
LGR8 = biological target: T1, LGR8 (Homo sapiens, UniProt Q8WXD0); experiment: Stimulation of β-galactosidase expression in SK-N-MC/β-gal cells; format: cell-based; details: highest concentration tested 1 µM
T1 construct: Human LGR8 cDNA containing the complete coding region was PCR amplified from a human testis cDNA pool; expressed in transfected cells

LGR7 = biological target: T2, LGR7 (Homo sapiens, UniProt Q9HBX9); experiment: as above; format: cell-based
T2 construct: Human LGR7 cDNA containing the complete coding region was PCR amplified from a human brain cDNA pool; expressed in transfected cells; host or cells: COS-7 (transient, live cells)
T2 sequence (Q9HBX9 1-757): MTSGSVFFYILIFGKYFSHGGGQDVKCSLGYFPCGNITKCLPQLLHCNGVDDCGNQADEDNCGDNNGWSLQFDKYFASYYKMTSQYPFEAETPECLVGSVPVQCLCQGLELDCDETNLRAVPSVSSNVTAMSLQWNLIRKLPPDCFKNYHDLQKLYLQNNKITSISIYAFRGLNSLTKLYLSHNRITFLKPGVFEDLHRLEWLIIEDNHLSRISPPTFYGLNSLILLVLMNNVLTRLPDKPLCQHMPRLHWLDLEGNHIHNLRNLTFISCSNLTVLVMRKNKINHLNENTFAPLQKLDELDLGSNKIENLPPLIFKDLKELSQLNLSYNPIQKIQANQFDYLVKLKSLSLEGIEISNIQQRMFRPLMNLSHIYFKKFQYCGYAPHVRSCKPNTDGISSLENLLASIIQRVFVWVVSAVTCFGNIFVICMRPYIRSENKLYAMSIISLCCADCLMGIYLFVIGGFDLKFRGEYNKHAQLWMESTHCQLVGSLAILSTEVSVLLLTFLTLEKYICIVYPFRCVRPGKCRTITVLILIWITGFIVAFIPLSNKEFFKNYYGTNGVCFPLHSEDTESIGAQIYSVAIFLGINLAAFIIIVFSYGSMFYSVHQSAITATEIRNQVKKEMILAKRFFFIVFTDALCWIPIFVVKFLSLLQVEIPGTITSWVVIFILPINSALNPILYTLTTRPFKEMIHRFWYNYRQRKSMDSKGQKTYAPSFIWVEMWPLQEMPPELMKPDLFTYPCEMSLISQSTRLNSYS

T1 sequence (Q8WXD0 whole entry): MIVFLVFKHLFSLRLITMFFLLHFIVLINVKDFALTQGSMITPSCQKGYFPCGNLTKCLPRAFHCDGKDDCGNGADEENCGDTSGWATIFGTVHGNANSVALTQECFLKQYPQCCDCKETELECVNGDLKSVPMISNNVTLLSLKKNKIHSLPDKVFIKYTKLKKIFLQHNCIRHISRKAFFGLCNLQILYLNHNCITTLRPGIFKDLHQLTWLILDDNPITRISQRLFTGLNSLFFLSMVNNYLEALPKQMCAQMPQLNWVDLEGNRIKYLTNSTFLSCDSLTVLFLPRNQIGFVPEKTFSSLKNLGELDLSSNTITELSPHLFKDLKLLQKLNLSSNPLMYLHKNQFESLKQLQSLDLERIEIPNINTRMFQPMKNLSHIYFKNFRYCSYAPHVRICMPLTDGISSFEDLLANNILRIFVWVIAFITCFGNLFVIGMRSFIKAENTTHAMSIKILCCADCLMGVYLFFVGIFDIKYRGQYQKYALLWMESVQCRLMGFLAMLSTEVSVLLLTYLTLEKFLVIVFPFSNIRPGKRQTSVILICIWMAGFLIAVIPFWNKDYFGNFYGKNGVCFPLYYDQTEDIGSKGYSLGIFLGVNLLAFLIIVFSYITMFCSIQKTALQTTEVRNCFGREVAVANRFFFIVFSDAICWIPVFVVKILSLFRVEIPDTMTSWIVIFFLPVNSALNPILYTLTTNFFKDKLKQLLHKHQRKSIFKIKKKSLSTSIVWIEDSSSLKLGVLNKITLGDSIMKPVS

CC[C@H](C)[C@H](NC(=O)[C@H](Cc1ccccc1)NC(=O)[C@H](CCC(=O)O)NC(=O)[C@H](CCCNC(=N)N)NC(=O)CNC(=O)[C@H](CS)NC(=O)[C@H](CC(C)C)NC(=O)[C@H](CCCNC(=N)N)NC(=O)[C@@H](NC(=O)CNC(=O)[C@H](Cc1ccc(O)cc1)NC(=O)[C@@H]1CCCN1C(=O)[C@H](C)NC(=O)[C@H](C)NC(=O)[C@@H](N)CCCNC(=N)N)C(C)C)C(=O)N[C@@H](CCCNC(=N)N)C(=O)N[C@@H](C)C(=O)N[C@H](C(=O)N[C@H](C(=O)N[C@@H](Cc1ccccc1)C(=O)N[C@H](C(=O)N[C@@H](CS)C(=O)NCC(=O)NCC(=O)N[C@@H](CO)C(=O)N[C@@H](CCCNC(=N)N)C(=O)N[C@@H](Cc1c[nH]c2ccccc12)C(=O)O)[C@@H](C)O)[C@@H](C)CC)C(C)C [relaxin-3 B-chain]
activity towards LGR8 (LGR8): did not activate | activation of LGR7 expressing cells (LGR7): did not activate
